Assay results as given in PubChem BioAssay AID1845198 (Molecular Pharmacology Branch, DTP, NCI, 2023).
pIC50: −log10 of the molar value.

Test system: 425362-245-T-J1 tumor spheroids, viability % test/control
Assay: Anticancer human tumor 425362-245-T-J1 patient-derived melanoma cell line growth inhibition
Conditions: spheroids with HUVEC and MSC; for pIC50: curve of first compound; for viability, T/C: stronger effect = lower value
Outline: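 Complex tumor spheroids combined malignant cells with endothelial cells and mesenchymal stem cells. DNA-damaging drugs and DNA repair inhibitors were tested alone and in combination, at half-log dilutions down from clinical Cmax (top 10 microM if Cmax unknown), 0.25% DMSO final.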

[1] = second compound 30 pM, first compound 0.0316 µM
[2] = second compound 30 pM, first compound 0.1 µM
[3] = second compound 30 pM, first compound 0.316 µM
[4] = second compound 30 pM, first compound 1 µM
[5] = second compound 30 pM, first compound 3.16 µM
[6] = second compound 30 pM, first compound 10 µM
[7] = second compound 94.9 pM, first compound 0.0316 µM
[8] = second compound 94.9 pM, first compound 0.1 µM
[9] = second compound 94.9 pM, first compound 0.316 µM
[10] = second compound 94.9 pM, first compound 1 µM
[11] = second compound 94.9 pM, first compound 3.16 µM
[12] = second compound 94.9 pM, first compound 10 µM
[13] = second compound 0.0003 µM, first compound 0.0316 µM
[14] = second compound 0.0003 µM, first compound 0.1 µM
[15] = second compound 0.0003 µM, first compound 0.316 µM
[16] = second compound 0.0003 µM, first compound 1 µM
[17] = second compound 0.0003 µM, first compound 3.16 µM
[18] = second compound 0.0003 µM, first compound 10 µM
[19] = second compound 0.000949 µM, first compound 0.0316 µM
[20] = second compound 0.000949 µM, first compound 0.1 µM
[21] = second compound 0.000949 µM, first compound 0.316 µM
[22] = second compound 0.000949 µM, first compound 1 µM
[23] = second compound 0.000949 µM, first compound 3.16 µM
[24] = second compound 0.000949 µM, first compound 10 µM
[25] = second compound 0.003 µM, first compound 0.0316 µM
[26] = second compound 0.003 µM, first compound 0.1 µM
[27] = second compound 0.003 µM, first compound 0.316 µM
[28] = second compound 0.003 µM, first compound 1 µM
[29] = second compound 0.003 µM, first compound 3.16 µM
[30] = second compound 0.003 µM, first compound 10 µM
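Also: spheroids exposed to agents for 7 days.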
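For viability, T/C in this document: 100% = DMSO vehicle control viability.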

CNCc1ccc(-c2cc(-c3nc(-c4ccc(S(=O)(=O)C(C)C)cc4)cnc3N)on2)cc1 + COc1cc2c(cc1O)CCNC21CSC2c3c(OC(C)=O)c(C)c4c(c3C(COC1=O)N1C(O)C3Cc5cc(C)c(OC)c(O)c5C(C21)N3C)OCO4
pIC50 (second compound 30 pM): 6.79
pIC50 (second compound 94.9 pM): 6.88
pIC50 (second compound 0.0003 µM): > 8.02
pIC50 (second compound 0.000949 µM): > 8.02
pIC50 (second compound 0.003 µM): > 8.02
viability, T/C (second compound 30 pM, first compound 0.00949 µM): 108%
viability, T/C (second compound 30 pM, first compound 0.03 µM): 113%
viability, T/C (second compound 30 pM, first compound 0.0949 µM): 85.1%
viability, T/C (second compound 30 pM, first compound 0.3 µM): 8.53%
viability, T/C (second compound 30 pM, first compound 0.949 µM): 2.32%
viability, T/C (second compound 30 pM, first compound 3 µM): 0.13%
viability, T/C (second compound 94.9 pM, first compound 0.00949 µM): 96.3%
viability, T/C (second compound 94.9 pM, first compound 0.03 µM): 103%
viability, T/C (second compound 94.9 pM, first compound 0.0949 µM): 68.1%
viability, T/C (second compound 94.9 pM, first compound 0.3 µM): 3.99%
viability, T/C (second compound 94.9 pM, first compound 0.949 µM): 1.51%
viability, T/C (second compound 94.9 pM, first compound 3 µM): 0.15%
viability, T/C (second compound 0.0003 µM, first compound 0.00949 µM): 43.7%
viability, T/C (second compound 0.0003 µM, first compound 0.03 µM): 37%
viability, T/C (second compound 0.0003 µM, first compound 0.0949 µM): 16.4%
viability, T/C (second compound 0.0003 µM, first compound 0.3 µM): 1.69%
viability, T/C (second compound 0.0003 µM, first compound 0.949 µM): 0.79%
viability, T/C (second compound 0.0003 µM, first compound 3 µM): 0.15%
viability, T/C (second compound 0.000949 µM, first compound 0.00949 µM): 0.41%
viability, T/C (second compound 0.000949 µM, first compound 0.03 µM): 0.41%
viability, T/C (second compound 0.000949 µM, first compound 0.0949 µM): 0.27%
viability, T/C (second compound 0.000949 µM, first compound 0.3 µM): 0.35%
viability, T/C (second compound 0.000949 µM, first compound 0.949 µM): 0.13%
viability, T/C (second compound 0.000949 µM, first compound 3 µM): 0.17%
viability, T/C (second compound 0.003 µM, first compound 0.00949 µM): 0.26%
viability, T/C (second compound 0.003 µM, first compound 0.03 µM): 0.28%
viability, T/C (second compound 0.003 µM, first compound 0.0949 µM): 0.27%
viability, T/C (second compound 0.003 µM, first compound 0.3 µM): 0.22%
viability, T/C (second compound 0.003 µM, first compound 0.949 µM): 0.2%
viability, T/C (second compound 0.003 µM, first compound 3 µM): 0.27%

[2H]c1nc(C)nc([2H])c1-c1cc(NC[C@@H](C)c2cccc3c(C(=O)NC)ccnc23)ncn1 + COc1cc2c(cc1O)CCNC21CSC2c3c(OC(C)=O)c(C)c4c(c3C(COC1=O)N1C(O)C3Cc5cc(C)c(OC)c(O)c5C(C21)N3C)OCO4
pIC50 (second compound 30 pM): < 5.00
pIC50 (second compound 94.9 pM): < 5.00
pIC50 (second compound 0.0003 µM): 7.14
pIC50 (second compound 0.000949 µM): > 7.50
pIC50 (second compound 0.003 µM): > 7.50
viability, T/C [1]: 91.2%
viability, T/C [2]: 106%
viability, T/C [3]: 100%
viability, T/C [4]: 101%
viability, T/C [5]: 90.8%
viability, T/C [6]: 92.1%
viability, T/C [7]: 89.7%
viability, T/C [8]: 90.1%
viability, T/C [9]: 92.3%
viability, T/C [10]: 91.5%
viability, T/C [11]: 83.1%
viability, T/C [12]: 82.5%
viability, T/C [13]: 51%
viability, T/C [14]: 54.6%
viability, T/C [15]: 43.2%
viability, T/C [16]: 40.4%
viability, T/C [17]: 50.2%
viability, T/C [18]: 41.5%
viability, T/C [19]: 0.44%
viability, T/C [20]: 0.45%
viability, T/C [21]: 1.41%
viability, T/C [22]: 0.35%
viability, T/C [23]: 0.23%
viability, T/C [24]: 0.31%
viability, T/C [25]: 0.18%
viability, T/C [26]: 0.2%
viability, T/C [27]: 0.14%
viability, T/C [28]: 0.12%
viability, T/C [29]: 0.13%
viability, T/C [30]: 0.25%

COc1cc(C)[nH]c(=O)c1CN1CCc2c(Cl)cc(C(OC)C3COC3)c(Cl)c2C1=O (stereo not given) + COc1cc2c(cc1O)CCNC21CSC2c3c(OC(C)=O)c(C)c4c(c3C(COC1=O)N1C(O)C3Cc5cc(C)c(OC)c(O)c5C(C21)N3C)OCO4
pIC50 (second compound 30 pM): < 5.00
pIC50 (second compound 94.9 pM): < 5.00
pIC50 (second compound 0.0003 µM): 6.44
pIC50 (second compound 0.000949 µM): > 7.50
pIC50 (second compound 0.003 µM): > 7.50
viability, T/C [1]: 104%
viability, T/C [2]: 104%
viability, T/C [3]: 100%
viability, T/C [4]: 99.2%
viability, T/C [5]: 86.5%
viability, T/C [6]: 92.5%
viability, T/C [7]: 98.4%
viability, T/C [8]: 93.9%
viability, T/C [9]: 98.7%
viability, T/C [10]: 95.1%
viability, T/C [11]: 87%
viability, T/C [12]: 74.2%
viability, T/C [13]: 68%
viability, T/C [14]: 48.1%
viability, T/C [15]: 60.5%
viability, T/C [16]: 40.5%
viability, T/C [17]: 30.2%
viability, T/C [18]: 23.1%
viability, T/C [19]: 0.53%
viability, T/C [20]: 0.46%
viability, T/C [21]: 1.6%
viability, T/C [22]: 0.35%
viability, T/C [23]: 0.31%
viability, T/C [24]: 0.31%
viability, T/C [25]: 0.35%
viability, T/C [26]: 0.38%
viability, T/C [27]: 0.36%
viability, T/C [28]: 0.31%
viability, T/C [29]: 0.29%
viability, T/C [30]: 0.35%
